# Results as given in US7049340B1, “Neuroprotective and retinoprotective ophthalmologic drugs” (priority 1999, dated 2006).
# “And” between values parts separate entries of the source, which are not always exact repeats. Equal entries are not always repeated.
# What was measured:
# Type in all cases: in vivo, human
# [1] = system: patients with glaucomatous neuropathy; assay: Clinical treatment of glaucomatous neuropathy: visual acuity, automated perimetry, ocular tension; settings: for Mean drop MD: normal −2..2; for Corr. Loss variance CLV: normal 0..4; for Loss variance LV: normal 0..6; for visual acuity after treatment: most spectacular case
# Procedure: (§1) The invention will now be illustrated by the following description of clinical examples which, of course, are not limiting in nature. In these examples the active principle, in particular ramipril, was administered continuously in an oral form, in an amount of 1.25 mg per day.
# FIGS. 1 and 2 reproduce the fields of vision of the left eye; FIGS. 3 and 4 reproduce the field of vision of the right eye as perceived by one of the treated patients who suffered from glaucomatous neuropathy, respectively before treatment (FIGS. 1 and 3) and after treatment, 10 days later (FIGS. 2 and 4).
# (§2) The grey scale provides an “image” of visual function, point by point, of different regions of the retina; the palest zones correspond to regions in which the visual functions are the least altered; the darkest zones correspond to those that have altered the most. […] A reduction in the darkest regions also indicates local visual recovery in regions that have become lighter.
# (§3) The values that appear in the right hand portions of the figures correspond to the threshold values measured locally at set points in the retina. […] In contrast, the values that appear in the lower right hand portions of the figures correspond to local loss of vision in the zones concerned of the retina compared with the normal.
# (§4) The Bebie curves also provide comparative images of the visual capacity of the subject under examination (lower curves) compared with the curves for normal or quasi-normal subjects (upper curves).
# [2] = system: severely myopic patients with degenerative chorioretinopathy; assay: Clinical treatment of degenerative chorio-retinopathy in severe myopia: corrected visual acuity
# Procedure: as §1
# By way of example, visual acuity changed respectively: from simple light perception (LP) to 1/20 for the monophtalmic eye; from 2/10 (RE) 1/10 (LE) to 5/10 (RE) and 5/10 (LE); from 1.5/10 to 3/10; from 1/20 (both eyes) to 2/10 (RE) and 1/10 (LE); from 1/10 (RE) and 1/10 (LE) to 6/10 (RE) and 3/10 (LE). Clearly, the term RE used here means “right eye” and the term LE used here means “left eye”.
# [3] = system: patients with age-related macular degeneration; assay: Clinical treatment of age-related macular degeneration (ARMD): visual acuity
# Procedure: as §1
# By way of example, visual acuity changed respectively from 0.16 to 0.3; 0.2 to 0.5; from 0.05 to 0.2 (right eye) and 0.05 to 0.15 (left eye); from 0.2 to 0.4 (right eye) and from 0.5 to 0.8 (left eye); from 0.6 to 1; from 0.4 to 0.6 (right eye) and from 0.2 to 0.5 (left eye).
# [4] = system: patients with retinitis pigmentosa; assay: Clinical treatment of retinitis pigmentosa: visual acuity, automated perimetry, electroretinogram; settings: for visual acuity after treatment: 1.25 mg orally, two months; for Mean drop MD: normal −2..2; for Corr. Loss variance CLV: normal 0..4; for Loss variance LV: normal 0..6; for Mean sensitivity MS: sectorial retinitis pigmentosa
# Procedure: as §1
# FIGS. 5 and 6 reproduce the fields of vision of the left eye; FIGS. 7 and 8 reproduce the field of vision of the right eye as perceived by one of the treated patients who suffered from sectorial retinitis pigmentosa, respectively before treatment (FIGS. 5 and 7) and after treatment, two months later (FIGS. 6 and 8).
# as §2, §3, §4
# Three patients were treated with 1.25 mg of ramipril orally and their visual acuity improved in the space of two months: […]
# [5] = system: patient with Stargardt's disease, fundus flavimaculatus; assay: Clinical treatment of Stargardt's flavimaculatus disease: visual acuity; settings: for visual acuity after treatment: one patient
# Procedure: as §1
# (§5) Ramipril was used in the following three disorders: retinitis pigmentosa; Stargardt's disease, fundus flavimaculatus; adult pseudo-vitelliform dystrophy.
# One patient was treated; acuity improved from 1/20 to 1/10 in the right eye and from 1/50 to 3/10 in the left eye.
# [6] = system: patient with pseudovitelliform dystrophy; assay: Clinical treatment of adult pseudo-vitelliform dystrophy: visual acuity; settings: for visual acuity after treatment: one patient, one month
# Procedure: as §1, §5
# One patient was tested. Acuity improved in one month from 1.6 to 2/10 in the right eye and from 2/10 to 3/10 in the left eye. The activity of the ramipril in these hereditary dystrophies is unique.
# [7] = system: patients with retinal venous occlusion; assay: Clinical treatment of retinal venous occlusions; settings: for visual acuity after treatment: oedematous and ischemic type venous branch occlusion, two months
# Procedure: as §1
# [8] = system: healthy subject; assay: General arterial pressure at doses that improve field of vision; settings: healthy subject
# From the text: Effective doses for producing effects in the ophtalmologic field are desirably lower than doses that would induce general arterial hypotension in a subject with normal pressure. Clearly, the doses that can be used can be higher in subjects with hypertension, although this is not necessary, since the desired effect is that obtained in the ophtalmologic field.
compound,measurement,setting,value
CCOC(=O)[C@H](CCc1ccccc1)N[C@@H](C)C(=O)N1[C@H](C(=O)O)C[C@@H]2CCC[C@@H]21 [ramipril],scotomas,[1]; automated perimetry,absolute scotomas became relative
same,reduction of loss in mean sensitivity,"[1]; automated perimetry, on average",30%
same,ocular tension,[1]; irregular amount,Significant reduction
same,Mean drop MD,"[1]; left eye after treatment (10 days), Mean, before 9.9",6.2 dB
same,Corr. Loss variance CLV,"[1]; left eye after treatment (10 days), Mean, before 22.4",13.1 dB^2
same,Mean sensitivity MS,"[1]; left eye after treatment (10 days), Mean, before treatment 16.5",20.2
same,Mean drop MD,"[1]; left eye after treatment (10 days), Phase 1, before 9.5",5.7 dB
same,Loss variance LV,"[1]; left eye after treatment (10 days), Phase 1, before 26.8",16.8 dB
same,Mean sensitivity MS,"[1]; left eye after treatment (10 days), Phase 1, before treatment 16.9",20.0
same,Mean drop MD,"[1]; left eye after treatment (10 days), Phase 2, before 9.4",6.8 dB
same,Loss variance LV,"[1]; left eye after treatment (10 days), Phase 2, before 29.3",26.5 dB
same,Mean sensitivity MS,"[1]; left eye after treatment (10 days), Phase 2, before treatment 17.3",20.0
same,visual acuity after treatment,"[1]; LE, before 3/10",10/10
same,visual acuity after treatment,"[1]; RE, before 6/10",8/10
same,Mean drop MD,"[1]; right eye after treatment (10 days), Mean, before 9.5",4.8 dB
same,Corr. Loss variance CLV,"[1]; right eye after treatment (10 days), Mean, before 21.8",13.1 dB^2
same,Mean sensitivity MS,"[1]; right eye after treatment (10 days), Mean, before treatment 16.9",21.6
same,Mean drop MD,"[1]; right eye after treatment (10 days), Phase 1, before 9.0",4.1 dB
same,Loss variance LV,"[1]; right eye after treatment (10 days), Phase 1, before 28.6",17.2 dB
same,Mean sensitivity MS,"[1]; right eye after treatment (10 days), Phase 1, before treatment 17.4",22.2
same,Mean drop MD,"[1]; right eye after treatment (10 days), Phase 2, before 9.3",4.7 dB
same,Loss variance LV,"[1]; right eye after treatment (10 days), Phase 2, before 21.0",10.4 dB
same,Mean sensitivity MS,"[1]; right eye after treatment (10 days), Phase 2, before treatment 17.4",21.9
same,visual acuity after treatment,"[2]; case 1, monophtalmic eye, before simple light perception (LP)",1/20
same,visual acuity after treatment,"[2]; case 2, LE, before 1/10",5/10
same,visual acuity after treatment,"[2]; case 2, RE, before 2/10",5/10
same,visual acuity after treatment,"[2]; case 3, before 1.5/10",3/10
same,visual acuity after treatment,"[2]; case 4, LE, before 1/20",1/10
same,visual acuity after treatment,"[2]; case 4, RE, before 1/20",2/10
same,visual acuity after treatment,"[2]; case 5, LE, before 1/10",3/10
same,visual acuity after treatment,"[2]; case 5, RE, before 1/10",6/10
same,corrected visual acuity,"[2]; even in a low dose, always, despite extremely severe myopic choroidosis",improvement in corrected visual acuity
same,visual acuity after treatment,"[3]; case 1, before 0.16",0.3
same,visual acuity after treatment,"[3]; case 2, before 0.2",0.5
same,visual acuity after treatment,"[3]; case 3, left eye, before 0.05",0.15
same,visual acuity after treatment,"[3]; case 3, right eye, before 0.05",0.2
same,visual acuity after treatment,"[3]; case 4, left eye, before 0.5",0.8
same,visual acuity after treatment,"[3]; case 4, right eye, before 0.2",0.4
same,visual acuity after treatment,"[3]; case 5, before 0.6",1
same,visual acuity after treatment,"[3]; case 6, left eye, before 0.2",0.5
same,visual acuity after treatment,"[3]; case 6, right eye, before 0.4",0.6
same,visual acuity,"[3]; majority of patients, with or without sub-retinal neovessels",improved visual acuity
same,visual acuity after treatment,"[4]; first patient, right eye, before doubtful light perception",1/50
same,visual function,"[4]; retinitis pigmentosa, all cases",improvement in visual function
same,visual acuity after treatment,"[4]; second patient, monophthalmic, before 2/10",5/10
same,visual acuity after treatment,"[4]; third patient (sectorial), left eye, before 1.6",4/10
same,visual acuity after treatment,"[4]; third patient (sectorial), right eye, before 1.6",6/10
same,Mean drop MD,"[4]; third patient, left eye after two months, Mean, before 10.3",6.5 dB
same,Corr. Loss variance CLV,"[4]; third patient, left eye after two months, Mean, before 52.5",48.0 dB^2
same,Mean drop MD,"[4]; third patient, left eye after two months, Phase 1, before 9.8",6.2 dB
same,Loss variance LV,"[4]; third patient, left eye after two months, Phase 1, before 60.6",51.8 dB
same,Mean drop MD,"[4]; third patient, left eye after two months, Phase 2, before 9.6",7.0 dB
same,Loss variance LV,"[4]; third patient, left eye after two months, Phase 2, before 52.8",63.9 dB
same,Mean drop MD,"[4]; third patient, right eye after two months, Mean, before 10.6",8.8 dB
same,Corr. Loss variance CLV,"[4]; third patient, right eye after two months, Mean, before 66.0",65.6 dB^2
same,Mean drop MD,"[4]; third patient, right eye after two months, Phase 1, before 10.2",8.7 dB
same,Loss variance LV,"[4]; third patient, right eye after two months, Phase 1, before 70.4",67.5 dB
same,Mean drop MD,"[4]; third patient, right eye after two months, Phase 2, before 11.5",9.2 dB
same,Loss variance LV,"[4]; third patient, right eye after two months, Phase 2, before 86.9",79.8 dB
same,Mean sensitivity MS,"[4]; third patient, left eye after two months, Mean, before 16.8",19.9 and 20.9
same,Mean sensitivity MS,"[4]; third patient, left eye after two months, Phase 1, before 17.3",21.2
same,Mean sensitivity MS,"[4]; third patient, left eye after two months, Phase 2, before 17.9",20.8
same,Mean sensitivity MS,"[4]; third patient, right eye after two months, Mean, before 16.5",18 and 18.3
same,Mean sensitivity MS,"[4]; third patient, right eye after two months, Phase 1, before 16.8",18.4
same,Mean sensitivity MS,"[4]; third patient, right eye after two months, Phase 2, before 16.0",18.2
same,electroretinogram,"[4]; third patient, especially in the red and in the left eye",substantially improved
same,visual function,"[5]; Stargardt's disease, fundus flavimaculatus, all cases",improvement in visual function
same,visual acuity after treatment,"[5]; left eye, before 1/50",3/10
same,visual acuity after treatment,"[5]; right eye, before 1/20",1/10
same,visual function,"[6]; adult pseudo-vitelliform dystrophy, all cases",improvement in visual function
same,visual acuity after treatment,"[6]; left eye, before 2/10",3/10
same,visual acuity after treatment,"[6]; right eye, before 1.6",2/10
same,visual acuity after treatment,"[7]; first patient, before 2/10",8/10
same,functional and angiographic outcome,[7]; majority of patients treated,improved both on the functional and on the angiographic level
same,visual acuity after treatment,"[7]; second patient, before 6/10",10/10
same,effect on arterial pressure of doses that improve field of vision,[8],do not cause arterial hypertension
